What all share (assay type): in vivo
Data set [1] has as its system weeds. As to the kind of experiment: Activity assay of compositions, post-emergence spray treatment of stems and leaves (F). The following applies: F. As to the method: (§1) The required active ingredient B was purchased from a reagent company or a technical material manufacturer or synthesized by a conventional method. The technical materials were all dissolved with acetone solvents and diluted with aqueous solution of 0.1% Tween® 80 emulsifier, which should be used immediately after dilution.
Weeds were cultivated by the pot culture method. […] Weed seeds with plump and uniform grains were selected, soaked in lukewarm water at 25° C. for 6 hours, and accelerated to germinate in a 28° C. biochemical incubator (in darkness). The weed seeds that had just germinated were evenly placed on the surface of the soil and then covered with 0.5-1 cm soil according to the sizes of seeds.
The weeds were cultured in a controllable sunlight greenhouse at 20-30° C., in natural light and with relative humidity of 57%-72%.
Each treatment was repeated 4 times. Three pots with 20 weed seeds sowed per pot were treated each time.
The drug was applied once in total in the experiment. When at 1.5-2 leaf stage, the weeds were thinned out to maintain 10 strains per pot. Thirty strains were kept in each treatment and then continued to be cultured until the 3-4 leaf stage for further treatment.
The well-cultured test materials were evenly placed on a 0.5 m^2 platform and foliage-sprayed by the 3WP-2000-type walking spray tower at a dosage of […] and a spray pressure of 0.3 MPa. After all the drug solution was sprayed, the air valve was closed. And 30 seconds later, the door of the spray tower was opened, and the nutritional bowl was taken out. Next, the air valve was opened, and the spray tube was cleaned by spraying 50 mL of water. The test materials were transferred to and routinely cultured in a greenhouse after the treatment.
(§2) A method for investigating absolute numbers was employed. The whole seedlings of the survival weeds were cut along the soil surface with a blade, and the fresh weight of the weeds was weighed by an analytical balance. For dead weeds, the fresh weight thereof was considered zero.
(§3) The investigation was performed 21 days after the treatment for once in total.
The theoretical fresh weight inhibition rate of a mixed combination of each treatment was calculated by the Gowing method (E0═X+Y−X*Y/100), then compared with the measured inhibition rate (E) to evaluate the type of the combined action of the combination of the two on weeds. The combined action was a synergistic effect when E−E0 >10%; an antagonistic effect when E−E0<−10%; an additional effect when −10%≤E−E0≤10%. An optimal ratio was determined according to factors such as actual control effects, characteristics of herbicides, balance of the formulation, etc. In the formula, X represents the fresh weight inhibition rate of the active ingredient A in a dosage of P; Y represents the fresh weight inhibition rate of the active ingredient B in a dosage of Q. The statistical results are shown in Table 6.

In data set [2] the test system is Mythimna separata. Kind of data set: Insecticidal activity assay, spraying method. Particulars: 500 ppm, 3rd instar, spray, 48 h after drug application. As to the method:
Spraying method: the technical material was weighed and dissolved with acetone, and the drug liquid was diluted with distilled water to different concentrations. The 2nd instar Spodoptera frugiperda test insects or the 3rd instar Mythimna separata test insects reared indoors with consistent physiological conditions were selected. Ten test insects were picked into each petri dish. Two 2 cm-long corn leaves were placed in the petri dish and sprayed using a spray tower. Each dosage was repeated 3 times, with acetone of the corresponding concentration as a control. After drug application, the insects were transferred to and reared in a condition where the temperature was 25° C. and the humidity was 60%. The results were investigated 48 h after drug application and the death number per treatment was collected, respectively. The mortality was calculated in accordance with the following equation: Mortality (%)=(Number of dead insects/Number of test insects)×100.

Data set [3] relates to weeds. Kind of data set: Activity assay of compositions, soil sealing treatment (S). The following applies: for pest or weed control at 300 g/ha: B 300 g a.i./ha.
From the text: as §1
The test soil was quantitatively filled to ¾ of a pot, and then watered from the bottom of the pot to completely wet the soil to saturation. The seeds of the test weeds were accelerated to Just germinate, and then evenly and quantitatively broadcasted on the soil surface, covered with 0.5-1 cm soil according to the sizes of the seeds, and ready for use 72 hours after broadcasting.
Each treatment was repeated 4 times. Four pots were treated each time with 20 weed seeds per pot.
The seeds were planted in a 20 cm*30 cm square box. Water was added to 2-3 cm deep after sowing, then injected with the drug agent using a syringe, stirred evenly, and left to stand for 2 days to dry naturally. The soil was kept moist afterwards.
as §2, §3
The theoretical fresh weight inhibition rate of a mixed combination of each treatment was calculated by the Gowing method (E0═X+Y−X*Y/100), then compared with the measured inhibition rate (E) to evaluate the type of the combined action of the combination of the two on weeds. The combined action was a synergistic effect when E−E0 >10%; an antagonistic effect when E−E0<−10%; an additional effect when −10%≤E−E0≤10%. An optimal ratio was determined according to factors such as actual control effects, characteristics of herbicides, balance of the formulation, etc.

Setting [4] is: Alisma plantago-aquatica, B 30 g a.i./ha.
Where [5] appears, read: Alisma plantago-aquatica, B 60 g a.i./ha.
Where [6] appears, read: soil, Rotala indica, S, B 150 g a.i./ha, read-out: Control effect of B applied alone in a corresponding dose (%).
Setting [7] is: soil, Rotala indica, S, read-out: Control effect of B applied alone in a corresponding dose (%).
[8] abbreviates: soil, Paspalum distichum, S, B 7.5 g a.i./ha, read-out: Control effect of B applied alone in a corresponding dose (%).
Where [9] appears, read: soil, Paspalum distichum, S, B 15 g a.i./ha, read-out: Control effect of B applied alone in a corresponding dose (%).
Setting [10] is: soil, Rotala indica, S, B 7.5 g a.i./ha, read-out: Control effect of B applied alone in a corresponding dose (%).
The mark [11] stands for this setting: soil, Rotala indica, S, B 15 g a.i./ha, read-out: Control effect of B applied alone in a corresponding dose (%).
Where [12] appears, read: Rotala indica, soil, read-out: Control effect of B applied alone in a corresponding dose (%).

Where two headings read alike, the source gives them in different places.

In the case of `Nc1c(Cl)c(F)nc(OCC(=O)O)c1Cl` [Fluroxypyr, fluroxypyr, reference compound], the “Control effect of B applied alone in a corresponding dose (%)” value (shortened to “Control effect of B applied alone … (%)”) in data set [1] (setting [4]) is 52.5%; in data set [1] (setting [5]), 65.8%.
Take `Cc1cc(C)cc([C@H]2CN(C)C(=O)[C@@H]2C(=O)Nc2cnn(C)c2-c2ccc(Cl)cc2)c1` [281′]: the “Mythimna separata/% (mortality)” value in data set [2] amounted to 60%.
On to `CCCCOCN(C(=O)CCl)c1c(CC)cccc1CC` [Butachlor, butachlor], for which the pest or weed control at 150 g/ha in data set [3] (setting [6]) was determined as 42.4%. Also, in data set [3] (setting [7]), the pest or weed control at 300 g/ha was 58.6%.
The like results for `CCOCN(C(=O)CCl)c1c(C)cccc1CC` [Acetochlor, acetochlor] were, in that order, 46.2% and 66.5%.
As to `C[C@@H](Oc1nc(F)c(Cl)c(N)c1Cl)C(=O)OCC1CCCO1` (stereo partly drawn), the results for the “Control effect of B applied alone … (%)” value in data set [1] (setting [4]) and in data set [1] (setting [5]) were 38.7% and 45.6%, respectively.
As for `CCC(=O)Nc1ccc(Cl)c(Cl)c1` [Propanil, propanil, reference compound], the “Control effect of B applied alone … (%)” value was 48.3% in data set [1] (Paspalum distichum, B 300 g a.i./ha) and 56.1% in data set [1] (Paspalum distichum, B 600 g a.i./ha).
As for `Cc1ccccc1CO[C@@H]1C[C@@]2(C(C)C)CC[C@]1(C)O2` (racemic) [Cinmethylin, cinmethylin], the pest or weed control at 7.5 g/ha in data set [3] (setting [8]) was 34.8%. In data set [3] (setting [9]), the pest or weed control at 15 g/ha stood at 47.6%.
Turning to `CS(=O)(=O)c1ccc(C(=O)C2=C(Sc3ccccc3)C3CCC(C3)C2=O)c(Cl)c1` (stereo not drawn) [Benzobicyclon, benzobicyclon], the “Control effect of B applied alone … (%)” value in data set [3] (Rotala indica, S, B 15 g a.i./ha) was 32.8%; in data set [3] (Rotala indica, S, B 30 g a.i./ha), 49.6%.
`COC(=O)[C@@H](C)O/N=C/c1cc(-n2c(=O)cc(C(F)(F)F)n(C)c2=O)c(F)cc1Cl`: in data set [3] (setting [10]), the pest or weed control at 7.5 g/ha was found to be 47.9%. The pest or weed control at 15 g/ha in data set [3] (setting [11]) amounted to 56.6%.
Turning to `COC(=O)c1nc(-c2ccc(Cl)c(OC)c2F)cc(N)c1Cl` [Halauxifen-methyl, halauxifen-methyl], the “Control effect of B applied alone … (%)” value in data set [3] (Alisma plantago-aquatica, S, B 3.75 g a.i./ha) worked out at 58.4%; in data set [3] (Alisma plantago-aquatica, S, B 7.5 g a.i./ha) it was 68.9%.
`CC(C)C12CCC(C)(O1)C(OCc1c(F)cccc1Br)C2` (stereo not drawn): the pest or weed control at 7.5 g/ha in data set [3] (setting [8]) stood at 46.3%. The pest or weed control at 15 g/ha in data set [3] (setting [9]) amounted to 57.4%.
Regarding `CC(C)=C1OC(=O)N(c2cc(OC3CCCC3)c(Cl)cc2F)C1=O` [Pentoxazone, pentoxazone], in data set [3] (setting [12]), the pest or weed control at 30 g/ha stood at 55.3% and the pest or weed control at 60 g/ha was 62.7%.
With `COCCOC(=O)c1nc(-c2ccc(C(F)(F)F)c(OC)c2F)nc(N)c1OC`, the “Control effect of B applied alone … (%)” value is listed as 43.5% in data set [1] (Alisma plantago-aquatica, B 3.75 g a.i./ha) and 57.2% in data set [1] (Alisma plantago-aquatica, B 7.5 g a.i./ha).
As for `CC1(C)CON(Cc2ccc(Cl)cc2Br)C1=O`, the pest or weed control at 30 g/ha in data set [3] (soil, Paspalum distichum, S, B 30 g a.i./ha, read-out: Control effect of B applied alone in a corresponding dose (%)) amounted to 37.8%. In addition, the pest or weed control at 60 g/ha in data set [3] (soil, Paspalum distichum, S, B 60 g a.i./ha, read-out: Control effect of B applied alone in a corresponding dose (%)) is 51.3%.
On to `COP(=S)(OC)SCC(=O)N(c1ccc(Cl)cc1)C(C)(C)C` [Anilofos, anilofos], for which, in data set [3] (setting [12]), the pest or weed control at 75 g/ha was determined as 22.4% and the pest or weed control at 150 g/ha is 31.8%.
With `CC(C)N1C(=O)c2ccccc2NS1(=O)=O` [Bentazone, bentazone, reference compound], the “Control effect of B applied alone … (%)” value came out at 29.2% in data set [1] (Paspalum distichum, B 375 g a.i./ha) and 36.7% in data set [1] (Paspalum distichum, B 750 g a.i./ha).
On to `CCc1ccc(-n2cnc(C(F)(F)F)n2)nc1Oc1cccc(C(F)(F)F)c1`, for which the pest or weed control at 7.5 g/ha in data set [3] (setting [10]) was found to be 47.1%. Besides, the pest or weed control at 15 g/ha in data set [3] (setting [11]) turned out to be 63.6%.
